Results taken from PubChem BioAssay (NCI).
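GI50: concentration for 50% inhibition of growth. TGI denotes the concentration required for complete inhibition of growth.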

Legend:
Assay in all cases: inhibition of tumour cell growth, NCI panel, 384-well format
RPMI-8226 leukemia = test system: RPMI-8226 leukemia
786-0 renal = test system: 786-0 renal
A498 renal = test system: A498 renal
A549 NSCLC = test system: A549 NSCLC
ACHN renal = test system: ACHN renal
BT-549 breast = test system: BT-549 breast
CAKI-1 renal = test system: CAKI-1 renal
CCRF-CEM leukemia = test system: CCRF-CEM leukemia
COLO 205 colon = test system: COLO 205 colon
DU-145 prostate = test system: DU-145 prostate
EKVX NSCLC = test system: EKVX NSCLC
HCC-2998 colon = test system: HCC-2998 colon
HCT-116 colon = test system: HCT-116 colon
HCT-15 colon = test system: HCT-15 colon
HL-60(TB) leukemia = test system: HL-60(TB) leukemia
HOP-62 NSCLC = test system: HOP-62 NSCLC
HOP-92 NSCLC = test system: HOP-92 NSCLC
HS 578T breast = test system: HS 578T breast
IGROV1 ovarian = test system: IGROV1 ovarian
K-562 leukemia = test system: K-562 leukemia
KM12 colon = test system: KM12 colon
LOX IMVI melanoma = test system: LOX IMVI melanoma
M14 melanoma = test system: M14 melanoma
MALME-3M melanoma = test system: MALME-3M melanoma
MCF7 breast = test system: MCF7 breast
MDA-MB-231 breast = test system: MDA-MB-231 breast
MDA-MB-435 melanoma = test system: MDA-MB-435 melanoma
MDA-MB-468 breast = test system: MDA-MB-468 breast
MOLT-4 leukemia = test system: MOLT-4 leukemia
NCI-H226 lung = test system: NCI-H226 lung
NCI-H23 lung = test system: NCI-H23 lung
NCI-H322M lung = test system: NCI-H322M lung
NCI-H460 NSCLC = test system: NCI-H460 NSCLC
NCI-H522 lung = test system: NCI-H522 lung
NCI/ADR-RES ovarian = test system: NCI/ADR-RES ovarian
OVCAR-3 ovarian = test system: OVCAR-3 ovarian
OVCAR-4 ovarian = test system: OVCAR-4 ovarian
OVCAR-5 ovarian = test system: OVCAR-5 ovarian
OVCAR-8 ovarian = test system: OVCAR-8 ovarian
PC-3 prostate = test system: PC-3 prostate
RXF 393 renal = test system: RXF 393 renal
SF-268 CNS = test system: SF-268 CNS
SF-295 CNS = test system: SF-295 CNS
SF-539 CNS = test system: SF-539 CNS
SK-MEL-2 melanoma = test system: SK-MEL-2 melanoma
SK-MEL-28 melanoma = test system: SK-MEL-28 melanoma
SK-MEL-5 melanoma = test system: SK-MEL-5 melanoma
SK-OV-3 ovarian = test system: SK-OV-3 ovarian
SN12C renal = test system: SN12C renal
SNB-19 CNS = test system: SNB-19 CNS
SNB-75 CNS = test system: SNB-75 CNS
SR leukemia = test system: SR leukemia
SW-620 colon = test system: SW-620 colon
T-47D breast = test system: T-47D breast
TK-10 renal = test system: TK-10 renal
U251 glioblastoma = test system: U251 glioblastoma
UACC-257 melanoma = test system: UACC-257 melanoma
UACC-62 melanoma = test system: UACC-62 melanoma
UO-31 renal = test system: UO-31 renal

`CCCCCOC(=O)Nc1nc(=O)n(C2OC(C)C(O)C2O)cc1F` (configuration not stated) showed a GI50 (RPMI-8226 leukemia) of over 46.9 µM and a TGI (RPMI-8226 leukemia) of 99.8 µM.
For `CCN1CCN(Cc2ccc(Nc3ncc(F)c(-c4cc(F)c5nc(C)n(C(C)C)c5c4)n3)nc2)CC1`, the GI50 ([…]-0 renal) was 1.27 µM, the TGI (786-0 renal) was 7.97 µM and the GI50 (A498 renal) was 0.312 µM. For the same compound, the TGI (A498 renal) was 1.47 µM, the GI50 (A549 NSCLC) was 2.12 µM and the TGI (A549 NSCLC) was 7.52 µM. It also gave a GI50 (ACHN renal) of 0.39 µM, a TGI (ACHN renal) of 10.6 µM and a GI50 (BT-549 breast) of 0.917 µM. The TGI (BT-549 breast) was 16.5 µM, the GI50 (CAKI-1 renal) was 0.285 µM and the TGI (CAKI-1 renal) was 14 µM. For the same compound, the GI50 (CCRF-CEM leukemia) was 0.33 µM, the TGI (CCRF-CEM leukemia) was 4.39 µM and the GI50 (COLO 205 colon) was 0.447 µM. The TGI (COLO 205 colon) was over 55.9 µM, the GI50 (DU-145 prostate) was 1.84 µM and the TGI (DU-145 prostate) was 9.15 µM. For the same compound, the GI50 (EKVX NSCLC) was 18 µM, the TGI (EKVX NSCLC) was over 62 µM and the GI50 (HCC-2998 colon) was 4.45 µM. For the same compound, the GI50 (HCT-116 colon) was 0.392 µM, the TGI (HCT-116 colon) was 1.87 µM and the GI50 (HCT-15 colon) was 0.531 µM. It also gave a TGI (HCT-15 colon) of 7.24 µM, a GI50 (HL-60(TB) leukemia) of 0.386 µM and a TGI (HL-60(TB) leukemia) of 6.82 µM. It also gave a GI50 (HOP-62 NSCLC) of 8.44 µM, a TGI (HOP-62 NSCLC) of over 56.8 µM and a GI50 (HOP-92 NSCLC) of over 81.8 µM. For the same compound, the TGI (HOP-92 NSCLC) was over 100 µM, the GI50 (HS 578T breast) was 2.43 µM and the TGI (HS 578T breast) was 19.4 µM. For the same compound, the GI50 (IGROV1 ovarian) was 4.43 µM, the TGI (IGROV1 ovarian) was over 28.1 µM and the GI50 (K-562 leukemia) was 1.11 µM. The TGI (K-562 leukemia) was 2.32 µM, the GI50 (KM12 colon) was 0.485 µM and the TGI (KM12 colon) was 6.5 µM. The GI50 (LOX IMVI melanoma) was 0.372 µM, the TGI (LOX IMVI melanoma) was 7.23 µM and the GI50 (M14 melanoma) was 0.684 µM. The TGI (M14 melanoma) was over 28 µM, the GI50 (MALME-3M melanoma) was 3.43 µM and the TGI (MALME-3M melanoma) was 13.6 µM. The GI50 (MCF7 breast) was 0.395 µM, the TGI (MCF7 breast) was 6.59 µM and the GI50 (MDA-MB-231 breast) was 0.749 µM. The GI50 (MDA-MB-435 melanoma) was over 15.5 µM, the TGI (MDA-MB-435 melanoma) was over 52.4 µM and the GI50 (MDA-MB-468 breast) was 1.18 µM. It also gave a TGI (MDA-MB-468 breast) of over 25.7 µM, a GI50 (MOLT-4 leukemia) of 0.127 µM and a TGI (MOLT-4 leukemia) of 0.981 µM. It also gave a GI50 (NCI-H226 lung) of 0.56 µM, a TGI (NCI-H226 lung) of 23 µM and a GI50 (NCI-H23 lung) of 1.74 µM. The TGI (NCI-H23 lung) was 7.68 µM, the GI50 (NCI-H322M lung) was 1.16 µM and the TGI (NCI-H322M lung) was 15.2 µM. For the same compound, the GI50 (NCI-H460 NSCLC) was 0.387 µM, the TGI (NCI-H460 NSCLC) was 1.82 µM and the GI50 (NCI-H522 lung) was 9.54 µM. The TGI (NCI-H522 lung) was over 33.1 µM, the GI50 (NCI/ADR-RES ovarian) was over 60.9 µM and the TGI (NCI/ADR-RES ovarian) was over 100 µM. For the same compound, the GI50 (OVCAR-3 ovarian) was 4.21 µM, the TGI (OVCAR-3 ovarian) was over 29.3 µM and the TGI (OVCAR-4 ovarian) was over 19.6 µM. It also gave a GI50 (OVCAR-5 ovarian) of 0.944 µM, a TGI (OVCAR-5 ovarian) of over 68.3 µM and a GI50 (OVCAR-8 ovarian) of 24.3 µM. The TGI (OVCAR-8 ovarian) was over 32.4 µM, the GI50 (PC-3 prostate) was 1.49 µM and the TGI (PC-3 prostate) was over 31.9 µM. The GI50 (RPMI-8226 leukemia) was 1.42 µM, the TGI (RPMI-8226 leukemia) was 8.38 µM and the GI50 (RXF 393 renal) was 5.84 µM. For the same compound, the TGI (RXF 393 renal) was 11.6 µM, the GI50 (SF-268 CNS) was 2 µM and the TGI (SF-268 CNS) was 19 µM. It also gave a GI50 (SF-295 CNS) of 6.95 µM, a TGI (SF-295 CNS) of over 34.2 µM and a GI50 (SF-539 CNS) of 1.26 µM. For the same compound, the TGI (SF-539 CNS) was 2.53 µM, the GI50 (SK-MEL-2 melanoma) was 16.8 µM and the TGI (SK-MEL-2 melanoma) was 30.5 µM. It also gave a GI50 (SK-MEL-28 melanoma) of 1.85 µM, a TGI (SK-MEL-28 melanoma) of over 33.3 µM and a GI50 (SK-MEL-5 melanoma) of 0.26 µM. The TGI (SK-MEL-5 melanoma) was over 23.3 µM, the GI50 (SK-OV-3 ovarian) was 3.31 µM and the TGI (SK-OV-3 ovarian) was over 32 µM. The GI50 (SN12C renal) was 6.7 µM, the TGI (SN12C renal) was over 32.9 µM and the GI50 (SNB-19 CNS) was 16 µM. It also gave a TGI (SNB-19 CNS) of over 33.6 µM, a GI50 (SNB-75 CNS) of 0.708 µM and a TGI (SNB-75 CNS) of 10.6 µM. It also gave a GI50 (SR leukemia) of 0.0577 µM, a TGI (SR leukemia) of 0.267 µM and a GI50 (SW-620 colon) of 0.366 µM. For the same compound, the TGI (SW-620 colon) was 1.81 µM, the GI50 (T-47D breast) was 23.7 µM and the TGI (T-47D breast) was over 68.5 µM. It also gave a GI50 (TK-10 renal) of 0.803 µM, a TGI (TK-10 renal) of over 27.6 µM and a GI50 (U251 glioblastoma) of 2.87 µM. For the same compound, the TGI (U251 glioblastoma) was over 29.6 µM, the GI50 (UACC-257 melanoma) was 4.74 µM and the TGI (UACC-257 melanoma) was over 32.1 µM. It also gave a GI50 (UACC-62 melanoma) of 2.4 µM, a TGI (UACC-62 melanoma) of over 26.9 µM and a GI50 (UO-31 renal) of 0.362 µM. It also gave a TGI (UO-31 renal) of over 19.1 µM.
